How the values were obtained:
[1] = biological target: T1, human PPARγ (Homo sapiens, UniProt P37231); experiment: PPARγ activation, luciferase reporter in transfected COS-7 cells; assay type: cell-based; details: 24 hours
T1 construct: expressed in transfected cells; host or cells: COS-7 monkey kidney cells (ATCC CRL-1651)
T1 sequence (P37231 176-477 isoform P37231-2): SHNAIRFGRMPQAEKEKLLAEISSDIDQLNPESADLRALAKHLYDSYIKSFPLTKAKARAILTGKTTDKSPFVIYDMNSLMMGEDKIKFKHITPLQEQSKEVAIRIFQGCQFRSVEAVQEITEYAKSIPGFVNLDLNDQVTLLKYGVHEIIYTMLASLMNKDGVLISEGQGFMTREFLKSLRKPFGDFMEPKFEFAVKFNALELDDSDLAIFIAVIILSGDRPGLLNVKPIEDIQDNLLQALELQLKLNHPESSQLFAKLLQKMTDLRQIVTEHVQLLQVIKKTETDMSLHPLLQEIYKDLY
Experimental: Then, the polynucleotide was cloned between the restriction enzyme sites of BamHI and KpnI of pFA vector (Stratagene, USA). […] RT-PCR was performed by synthesizing cDNA using reverse transcriptase at 42° C. for 60 minutes, and 30 cycles of 1 minute at 95° C., 30 seconds at 54° C. and 2 minutes at 72° C. using Taq polymerase. […] Then, the polynucleotide was cloned between the restriction enzyme sites of XbaI and KpnI of pFA vector (Stratagene, USA).

[2] = test system: target genes of PPARγ (LPL, PEPCK); experiment: Expression of target genes of PPARγ in 3T3-L1 pre-adipocytes (RT-PCR); assay type: cell-based, mouse; details: 3T3-L1 cells, 24 hours, then MDI medium two days, vs control
Experimental: 3T3-L1 mouse pre-adipocytes (ATCC CL-173) cultured in a DMEM medium containing 10% FBS were pipetted into a multi-well plate in a cell count of 1×10^6 cells per well, and then further cultured for 5 hours. To the medium of the cultured cells, 10 μM of macelignan was added and then left for 24 hours. Adipocyte differentiation was induced by substituting the medium of the cultured cells with MDI (0.5 mM 3-isobutyl-1-methylxanthine, 0.5 uM dexamethasone, 10 ug/ml insulin) medium (Am. J. Physiol. Cell Physiol., 280: C807-C813, 2001). Cells were collected two days after the substitution of MDI medium, and the total RNA was isolated by using TRIZOL (Invitrogen, USA). The total RNA isolated as described above was determined, and cDNA was synthesized by using reverse transcriptase at 42° C. for 20 minutes with same amount of RNA. The cDNA was subjected to RT-PCR by repeating 30 cycles of 95° C./1 minute, 56° C./30 seconds and 72° C./2 minutes with the following primers and Taq polymerase: primers for LPL amplification (SEQ ID NO: 13([…]) and SEQ ID NO: 14([…])), and primers for PEPCK amplification (SEQ ID NO: 15(CAGGCGGCTGAA GAAGTATGA) and SEQ ID NO: 16([…])).

[3] = test system: 3T3-L1 mouse pre-adipocytes; experiment: Stimulation of adipocyte differentiation; assay type: cell-based; details: 10 μM, 3T3-L1, vs 0.01% DMSO control and 10 μM troglitazone
Experimental: 3T3-L1 mouse pre-adipocytes cultured in a DMEM medium containing 10% FBS were pipetted into a multi-well plate in a cell count of 1×10^6 cells per well, and then further cultured for 5 hours. To the cultured cells, 10 μM of macelignan was added and then left for 24 hours. Adipocyte differentiation was induced by substituting the medium of the cultured cells with MDI (0.5 mM 3-isobutyl-1-methylxanthine, 0.5 uM dexamethasone, 10 ug/ml insulin) medium (Am. J. Physiol. Cell Physiol., 280: C807-C813, 2001). The shape of the cells was observed by an optical microscope two day after the substitution of MDI medium.

[4] = test system: target genes of PPARα (CD36, ACO, CPT-1); experiment: Expression of target genes of PPARα in liver tissue of obesity/diabetes mouse model; assay type: in vivo; details: 5, 10 and 25 mg/kg oral, 14 days, db/db mice, p<0.05 vs control
Experimental: Liver tissue was removed from the test groups and the controls treated by oral administration in Examples 5˜8. The liver tissue was homogenized in liquid nitrogen and the total RNA was isolated from the tissues by using TRIZOL (Invitrogen, USA). The total RNA isolated as described above was determined and cDNA was synthesized by using reverse transcriptase at 42° C. for 20 minutes with same amount of RNA. The cDNA was subjected to RT-PCR by repeating 30 cycles of 95° C./1 minute, 56° C./30 seconds and 72° C./2 minutes with the following primers and Taq polymerase: primers for CD36 amplification (SEQ ID NO: 5 and SEQ ID NO: 6), primers for ACO amplification (SEQ ID NO: 11 and SEQ ID NO: 12), and primers for CPT-1 amplification (SEQ ID NO: 7 and SEQ ID NO: 8). Expression of the genes was determined by real-time PCR.

COc1cc(C[C@H](C)[C@H](C)Cc2ccc3c(c2)OCO3)ccc1O (single isomer, unassigned) [macelignan]
luciferase activity higher than the control (PPARγ) ([1]; 25 μM, control 0.01% DMSO): about 10.4 times | PPARγ activity ([1]; 1, 5, 10 and 25 μM, p<0.01 vs control): increased PPARγ activity in a concentration-dependent manner | mRNA expression of LPL and PEPCK [2]: significantly increased | adipocyte differentiation [3]: adipocyte differentiation was stimulated | mRNA expression of CD36, ACO and CPT-1 in liver tissue [4]: significantly increased
